Source: ChEMBL document CHEMBL3045446, “In vitro antimicrobial and antimycobacterial activity of some chalcones and their derivatives” (2013)
In brackets after ≈: the same amount, converted by molar mass.

Legend:
Format in all cases: functional
Proteus vulgaris [1] = experiment: Antimicrobial activity against Proteus vulgaris MTCC 1771 assessed as growth inhibition after 24 hr by agar streak dilution method; conditions: MTCC 1771, 24 h
Aspergillus fumigatus [2] = experiment: Antimicrobial activity against Aspergillus fumigatus MTCC 343 assessed as growth inhibition after 48 hr by agar streak dilution method; conditions: MTCC 343, 48 h
Escherichia coli [3] = experiment: Antimicrobial activity against Escherichia coli MTCC 739 assessed as growth inhibition after 24 hr by agar streak dilution method; conditions: MTCC 739, 24 h
Aspergillus clavatus [4] = experiment: Antimicrobial activity against Aspergillus clavatus MTCC 1323 assessed as growth inhibition after 48 hr by agar streak dilution method; conditions: MTCC 1323, 48 h
Bacillus cereus [5] = experiment: Antimicrobial activity against Bacillus cereus MTCC 430 assessed as diameter of growth inhibition zone after 24 hr
Proteus vulgaris [6] = experiment: Antimicrobial activity against Proteus vulgaris MTCC 1771 assessed as diameter of growth inhibition zone after 24 hr
Shigella flexneri [7] = experiment: Antimicrobial activity against Shigella flexneri MTCC1457 assessed as diameter of growth inhibition zone after 24 hr
Bacillus cereus [8] = experiment: Antimicrobial activity against Bacillus cereus MTCC 430 assessed as growth inhibition after 24 hr by agar streak dilution method; conditions: MTCC 430, 24 h
Staphylococcus aureus [9] = experiment: Antimicrobial activity against Staphylococcus aureus MTCC 96 assessed as growth inhibition after 24 hr by agar streak dilution method; conditions: MTCC 96, 24 h
Aspergillus fumigatus [10] = experiment: Antimicrobial activity against Aspergillus fumigatus MTCC 343 assessed as diameter of growth inhibition zone after 48 hr
Salmonella typhi [11] = experiment: Antimicrobial activity against Salmonella enterica subsp. enterica serovar Typhi MTCC 733 assessed as diameter of growth inhibition zone after 24 hr
Klebsiella pneumoniae [12] = experiment: Antimicrobial activity against Klebsiella pneumoniae MTCC 109 assessed as diameter of growth inhibition zone after 24 hr
Shigella flexneri [13] = experiment: Antimicrobial activity against Shigella flexneri MTCC1457 assessed as growth inhibition after 24 hr by agar streak dilution method; conditions: MTCC1457, 24 h
Klebsiella pneumoniae [14] = experiment: Antimicrobial activity against Klebsiella pneumoniae MTCC 109 assessed as growth inhibition after 24 hr by agar streak dilution method; conditions: MTCC 109, 24 h
Salmonella typhi [15] = experiment: Antimicrobial activity against Salmonella enterica subsp. enterica serovar Typhi MTCC 733 assessed as growth inhibition after 24 hr by agar streak dilution method; conditions: MTCC 733, 24 h
Escherichia coli [16] = experiment: Antimicrobial activity against Escherichia coli MTCC 739 assessed as diameter of growth inhibition zone after 24 hr
[17] = system: Mycobacterium tuberculosis; experiment: Antituberculosis activity against Mycobacterium tuberculosis H37Rv assessed as growth inhibition after 12 to 28 days by L-J MIC method; conditions: for MIC: Mycobacterium tuberculosis, H37Rv
Aspergillus niger [18] = experiment: Antimicrobial activity against Aspergillus niger MTCC 282 assessed as growth inhibition after 48 hr by agar streak dilution method; conditions: MTCC 282, 48 h
Candida albicans [19] = experiment: Antimicrobial activity against Candida albicans MTCC 183 assessed as growth inhibition after 48 hr by agar streak dilution method; conditions: MTCC 183, 48 h
Aspergillus clavatus [20] = experiment: Antimicrobial activity against Aspergillus clavatus MTCC 1323 assessed as diameter of growth inhibition zone after 48 hr
Candida albicans [21] = experiment: Antimicrobial activity against Candida albicans MTCC 183 assessed as diameter of growth inhibition zone after 48 hr
Aspergillus niger [22] = experiment: Antimicrobial activity against Aspergillus niger MTCC 282 assessed as diameter of growth inhibition zone after 48 hr
Pseudomonas aeruginosa [23] = experiment: Antimicrobial activity against Pseudomonas aeruginosa MTCC 741 assessed as diameter of growth inhibition zone after 24 hr
Staphylococcus aureus [24] = experiment: Antimicrobial activity against Staphylococcus aureus MTCC 96 assessed as diameter of growth inhibition zone after 24 hr
Pseudomonas aeruginosa [25] = experiment: Antimicrobial activity against Pseudomonas aeruginosa MTCC 741 assessed as growth inhibition after 24 hr by agar streak dilution method; conditions: MTCC 741, 24 h

SMILES	MIC (Proteus vulgaris [1]) [µg/mL]	MIC (Aspergillus fumigatus [2]) [µg/mL]	MIC (Escherichia coli [3]) [µg/mL]	MIC (Aspergillus clavatus [4]) [µg/mL]	diameter of the inhibition zone (DIZ) (Bacillus cereus [5]) [mm]	diameter of the inhibition zone (DIZ) (Proteus vulgaris [6]) [mm]	diameter of the inhibition zone (DIZ) (Shigella flexneri [7]) [mm]	MIC (Bacillus cereus [8]) [µg/mL]	MIC (Staphylococcus aureus [9]) [µg/mL]	diameter of the inhibition zone (DIZ) (Aspergillus fumigatus [10]) [mm]	diameter of the inhibition zone (DIZ) (Salmonella typhi [11]) [mm]	diameter of the inhibition zone (DIZ) (Klebsiella pneumoniae [12]) [mm]	MIC (Shigella flexneri [13]) [µg/mL]	MIC (Klebsiella pneumoniae [14]) [µg/mL]	MIC (Salmonella typhi [15]) [µg/mL]	diameter of the inhibition zone (DIZ) (Escherichia coli [16]) [mm]	growth inhibition (GI) [17] [%]	MIC [17] [µg/mL]	MIC (Aspergillus niger [18]) [µg/mL]	MIC (Candida albicans [19]) [µg/mL]	further results
Nc1nc(-c2ccc(Nc3cc(=O)oc4ccccc34)cc2)cc(-c2ccc(O)cc2O)n1	3.12 (≈ 7.12 µM)	12.5 (≈ 28.5 µM)	12.5 (≈ 28.5 µM)	6.25 (≈ 14.3 µM)	21	28	23	12.5 (≈ 28.5 µM)	12.5 (≈ 28.5 µM)	25	24	26	12.5 (≈ 28.5 µM)	6.25 (≈ 14.3 µM)	12.5 (≈ 28.5 µM)	22	97	200 (≈ 456 µM)	12.5 (≈ 28.5 µM)	25 (≈ 57 µM)	diameter of the inhibition zone (DIZ) (Aspergillus clavatus [20]): 25 mm; diameter of the inhibition zone (DIZ) (Candida albicans [21]): 21 mm; diameter of the inhibition zone (DIZ) (Aspergillus niger [22]): 22 mm; diameter of the inhibition zone (DIZ) (Pseudomonas aeruginosa [23]): 23 mm; diameter of the inhibition zone (DIZ) (Staphylococcus aureus [24]): 21 mm; MIC (Pseudomonas aeruginosa [25]): 12.5 µg/mL (≈ 28.5 µM)
COc1ccc(/C=C/C(=O)c2ccc(Nc3cc(=O)oc4ccccc34)cc2)cc1	50 (≈ 126 µM)	100 (≈ 252 µM)	50 (≈ 126 µM)	50 (≈ 126 µM)	13	18	15	100 (≈ 252 µM)	100 (≈ 252 µM)	16	14	16	100 (≈ 252 µM)	100 (≈ 252 µM)	100 (≈ 252 µM)	18	96	250 (≈ 629 µM)	50 (≈ 126 µM)	100 (≈ 252 µM)	diameter of the inhibition zone (DIZ) (Aspergillus clavatus [20]): 18 mm; diameter of the inhibition zone (DIZ) (Candida albicans [21]): 16 mm; diameter of the inhibition zone (DIZ) (Aspergillus niger [22]): 20 mm; diameter of the inhibition zone (DIZ) (Pseudomonas aeruginosa [23]): 16 mm; diameter of the inhibition zone (DIZ) (Staphylococcus aureus [24]): 15 mm; MIC (Pseudomonas aeruginosa [25]): 100 µg/mL (≈ 252 µM)
N#Cc1c(-c2ccc([N+](=O)[O-])cc2)cc(-c2ccc(Nc3cc(=O)oc4ccccc34)cc2)nc1N	50 (≈ 105 µM)	25 (≈ 52.6 µM)	25 (≈ 52.6 µM)	25 (≈ 52.6 µM)	22	19	20	25 (≈ 52.6 µM)	50 (≈ 105 µM)	20	23	19	50 (≈ 105 µM)	25 (≈ 52.6 µM)	12.5 (≈ 26.3 µM)	22	96	250 (≈ 526 µM)	25 (≈ 52.6 µM)	12.5 (≈ 26.3 µM)	diameter of the inhibition zone (DIZ) (Aspergillus clavatus [20]): 22 mm; diameter of the inhibition zone (DIZ) (Candida albicans [21]): 23 mm; diameter of the inhibition zone (DIZ) (Aspergillus niger [22]): 23 mm; diameter of the inhibition zone (DIZ) (Pseudomonas aeruginosa [23]): 20 mm; diameter of the inhibition zone (DIZ) (Staphylococcus aureus [24]): 17 mm; MIC (Pseudomonas aeruginosa [25]): 50 µg/mL (≈ 105 µM)
COc1ccc(-c2cc(-c3ccc(Nc4cc(=O)oc5ccccc45)cc3)nc(N)n2)cc1OC	25 (≈ 53.6 µM)	12.5 (≈ 26.8 µM)	6.25 (≈ 13.4 µM)	12.5 (≈ 26.8 µM)	20	21	24	12.5 (≈ 26.8 µM)	6.25 (≈ 13.4 µM)	25	22	23	12.5 (≈ 26.8 µM)	12.5 (≈ 26.8 µM)	12.5 (≈ 26.8 µM)	25	98	50 (≈ 107 µM)	6.25 (≈ 13.4 µM)	6.25 (≈ 13.4 µM)	diameter of the inhibition zone (DIZ) (Aspergillus clavatus [20]): 23 mm; diameter of the inhibition zone (DIZ) (Candida albicans [21]): 26 mm; diameter of the inhibition zone (DIZ) (Aspergillus niger [22]): 27 mm; diameter of the inhibition zone (DIZ) (Pseudomonas aeruginosa [23]): 23 mm; diameter of the inhibition zone (DIZ) (Staphylococcus aureus [24]): 27 mm; MIC (Pseudomonas aeruginosa [25]): 12.5 µg/mL (≈ 26.8 µM)
COc1ccc(-c2cc(-c3ccc(Nc4cc(=O)oc5ccccc45)cc3)nc(N)c2C#N)cc1OC	6.25 (≈ 12.7 µM)	3.12 (≈ 6.36 µM)	6.25 (≈ 12.7 µM)	6.25 (≈ 12.7 µM)	26	25	27	6.25 (≈ 12.7 µM)	3.12 (≈ 6.36 µM)	28	27	28	6.25 (≈ 12.7 µM)	3.12 (≈ 6.36 µM)	3.12 (≈ 6.36 µM)	26	99	12.5 (≈ 25.5 µM)	6.25 (≈ 12.7 µM)	6.25 (≈ 12.7 µM)	diameter of the inhibition zone (DIZ) (Aspergillus clavatus [20]): 25 mm; diameter of the inhibition zone (DIZ) (Candida albicans [21]): 27 mm; diameter of the inhibition zone (DIZ) (Aspergillus niger [22]): 27 mm; diameter of the inhibition zone (DIZ) (Pseudomonas aeruginosa [23]): 25 mm; diameter of the inhibition zone (DIZ) (Staphylococcus aureus [24]): 29 mm; MIC (Pseudomonas aeruginosa [25]): 6.25 µg/mL (≈ 12.7 µM)
Cc1ccc(/C=C/C(=O)c2ccc(Nc3cc(=O)oc4ccccc34)cc2)cc1	50 (≈ 131 µM)	100 (≈ 262 µM)	100 (≈ 262 µM)	100 (≈ 262 µM)	15	19	18	100 (≈ 262 µM)	100 (≈ 262 µM)	13	13	10	50 (≈ 131 µM)	100 (≈ 262 µM)	100 (≈ 262 µM)	<10	96	500 (≈ 1310 µM)	100 (≈ 262 µM)	100 (≈ 262 µM)	diameter of the inhibition zone (DIZ) (Aspergillus clavatus [20]): <10 mm; diameter of the inhibition zone (DIZ) (Candida albicans [21]): 11 mm; diameter of the inhibition zone (DIZ) (Aspergillus niger [22]): 14 mm; diameter of the inhibition zone (DIZ) (Pseudomonas aeruginosa [23]): 15 mm; diameter of the inhibition zone (DIZ) (Staphylococcus aureus [24]): 14 mm; MIC (Pseudomonas aeruginosa [25]): 100 µg/mL (≈ 262 µM)
